Test: mn = molality of the nth substance listed, in mol/kg
Conditions: 100 kPa, Liquid; for speed of sound: Frequency=3 MHz, Sing-around technique in a fixed-path interferometer; for mass density: Vibrating tube method

O=C([O-])CC(O)(CC(=O)[O-])C(=O)[O-].[K+].[K+].[K+] [potassium citrate] + O
Conditions	mass density, 288.15 K [kg/m3]	mass density, 298.15 K [kg/m3]	mass density, 308.15 K [kg/m3]	mass density, 318.15 K [kg/m3]	speed of sound, 288.15 K [m/s]	speed of sound, 298.15 K [m/s]	speed of sound, 308.15 K [m/s]	speed of sound, 318.15 K [m/s]
m1 = 0.2	1036.81	1034.22	1030.82	1026.73	1505.5	1533	1553.9	1568.9
m1 = 0.4	1073.44	1070.41	1066.68	1062.34	1544.3	1569.1	1587.9	1601.3
m1 = 0.6	1128.01	1124.42	1120.28	1115.69	1604	1625.9	1641.7	1652.5
